# Test results: US20240000806A1, “METHODS AND MATERIALS FOR INHIBITING CB1 ACTIVITY” (University of Pittsburgh - Of the Commonwealth System of …, priority 2020, published 2024)
# Biological target: CB1 (CNR1) (Homo sapiens, UniProt P21554)
# Experiment: cAMP CNR1 Hunter cell line antagonist assay (CB1 assay)
# Type: cell-based
# Details: antagonist mode, cAMP CNR1 Hunter cells, EC80 agonist; read-out: CB1 assay, Efficacy (IC50)
# Procedure: cAMP CNR1 Hunter cell line (Eurofins DiscoveryX) were expanded from freezer stocks and seeded in a total volume of 20 μL into white walled, 384-well microplates and incubated at 37° C. for the appropriate time prior to testing. For antagonist determination, cell media was aspirated from cells and replaced with 10 μL 1:1 HBSS/Hepes:cAMP XS+Ab reagent. 5 μL of 4× compound was added to the cells and incubated at 37° C. for 30 minutes. 5 μL of 4× EC80 agonist was added to cells and incubated at 37° C. for 30 minutes. After appropriate compound incubation, assay signal was generated through incubation with 20 μL cAMP XS+ED/CL lysis cocktail for one hour followed by incubation with 20 μL cAMP XS+EA reagent for three hours at room temperature. Microplates were read following signal generation with a PerkinElmer Envision™ instrument for chemiluminescent signal detection. Compound activity (IC50) was analyzed using CBIS data analysis suite (ChemInnovation, CA).
# Sequence of CB1 (CNR1) (P21554 whole entry): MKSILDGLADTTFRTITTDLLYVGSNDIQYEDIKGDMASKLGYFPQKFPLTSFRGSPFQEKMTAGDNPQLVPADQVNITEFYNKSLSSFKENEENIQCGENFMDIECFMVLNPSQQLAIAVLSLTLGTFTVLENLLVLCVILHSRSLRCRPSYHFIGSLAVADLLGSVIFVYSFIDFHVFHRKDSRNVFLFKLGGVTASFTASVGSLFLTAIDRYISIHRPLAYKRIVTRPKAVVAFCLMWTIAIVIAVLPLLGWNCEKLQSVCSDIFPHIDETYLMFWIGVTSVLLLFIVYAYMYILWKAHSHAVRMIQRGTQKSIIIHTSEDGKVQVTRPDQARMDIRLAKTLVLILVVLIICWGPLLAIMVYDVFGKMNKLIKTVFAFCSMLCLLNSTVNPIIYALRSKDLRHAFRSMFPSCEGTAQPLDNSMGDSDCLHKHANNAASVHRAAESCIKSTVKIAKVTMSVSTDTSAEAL
row,SMILES,IC50
1,CCS(=O)(=O)c1cc2c(c(S(=O)(=O)Nc3ccc(F)cc3)c1)OCC(=O)N2 [BC19443],≥ 25 µM
2,COc1ccc(NS(=O)(=O)c2cc3c(cc2Br)N(C)C(=O)C(C)O3)cc1 (stereo not drawn) [BC19795],≥ 25 µM
3,CCS(=O)(=O)c1cc2c(c(S(=O)(=O)Nc3ccc(C#N)cc3)c1)OCC(=O)N2 [BC19548],≥ 25 µM
4,CC1Oc2cc(S(=O)(=O)Nc3ccc(Cl)cc3)c(Br)cc2N(C)C1=O (stereo not drawn) [BC19792],≥ 25 µM
5,CC1Oc2cc(S(=O)(=O)NCc3ccc(F)cc3F)c(Br)cc2NC1=O (stereo not drawn) [BC19356],≥ 25 µM
6,CC(=O)c1cccc(NS(=O)(=O)c2cc3c(cc2C)NC(=O)CO3)c1 [BC19132],≥ 25 µM
7,CCS(=O)(=O)c1cc2c(c(S(=O)(=O)Nc3ccc(OC)cc3)c1)OCC(=O)N2 [BC19438],≥ 25 µM
8,CCC1Oc2cc(S(=O)(=O)NCc3ccc(OC(F)(F)F)cc3)c(Br)cc2NC1=O (stereo not drawn) [BC19369],≥ 25 µM
9,CCC1Oc2cc(S(=O)(=O)Nc3ccc(C(C)C)cc3)c(Br)cc2N(C)C1=O (stereo not drawn) [BC19934],≥ 25 µM
10,CCC1Oc2cc(S(=O)(=O)Nc3ccc(F)c(F)c3)c(Br)cc2N(C)C1=O (stereo not drawn) [BC19926],≥ 25 µM
11,CCC1Oc2c(cc(Br)cc2S(=O)(=O)NC2CCCCC2)NC1=O (stereo not drawn) [BC19233],≥ 25 µM
12,O=C1COc2c(cc(Br)cc2S(=O)(=O)Nc2ccc(C(F)(F)F)cc2Cl)N1 [BC19384],≥ 25 µM
13,CCC1Oc2c(cc(Br)cc2S(=O)(=O)NCc2ccc(C(F)(F)F)cc2)NC1=O (stereo not drawn) [BC19377],≥ 25 µM
14,CC1Oc2cc(S(=O)(=O)N3CCN(C)CC3)c(Br)cc2NC1=O (stereo not drawn) [BC19219],≥ 25 µM
15,Cc1c(Cl)cc2c(c1S(=O)(=O)Nc1ccc(Cl)cc1)OCC(=O)N2 [BC19434],≥ 25 µM
16,CC(C)c1ccc(NS(=O)(=O)c2cc(S(C)(=O)=O)cc3c2OCC(=O)N3)cc1 [BC19424],≥ 25 µM
17,CC1C(=O)Nc2ccc(S(=O)(=O)N3CCCC3)cc2N1C(=O)N1CCOCC1 (stereo not drawn) [BC19297],≥ 25 µM
18,CCc1cccc(NS(=O)(=O)c2cc3c(cc2Cl)NC(=O)C(C)O3)c1 (stereo not drawn) [BC19711],≥ 25 µM
19,O=C1CCOc2c(cc(Br)cc2S(=O)(=O)Nc2ccc(OC(F)(F)F)cc2)N1 [BC19648],≥ 25 µM
20,CCS(=O)(=O)c1cc2c(c(S(=O)(=O)Nc3ccc(OC(F)(F)F)cc3)c1)OCC(=O)N2 [BC19435],≥ 25 µM
21,CC1Oc2cc(S(=O)(=O)Nc3ccc(C(C)C)cc3)c(Br)cc2N(C)C1=O (stereo not drawn) [BC19794],≥ 25 µM
22,CCC1Oc2c(cc(Br)cc2S(=O)(=O)Nc2ccc(C)c(Cl)c2)N(C)C1=O (stereo not drawn) [BC19937],≥ 25 µM
23,COc1ccc(NS(=O)(=O)c2cc3c(cc2Cl)NC(=O)C(C)O3)cc1 (stereo not drawn) [BC19706],≥ 25 µM
24,CCc1ccc(NS(=O)(=O)c2cc(Br)cc3c2OC(CC)C(=O)N3C)cc1 (stereo not drawn) [BC19931],≥ 25 µM
25,Cc1ccc(NS(=O)(=O)c2c(C)c(Cl)cc3c2OCC(=O)N3)cc1Cl [BC19433],≥ 25 µM

# The next lines start with the values.
row,IC50,SMILES
1,1 to 25 µM,Cc1ccc(NS(=O)(=O)c2cc3c(cc2Cl)NC(=O)C(C)O3)cc1F (stereo not drawn) [BC19700]
2,≥ 25 µM,CCC1Oc2cc(S(=O)(=O)Nc3cccc(SC)c3)c(Cl)cc2NC1=O (stereo not drawn) [BC19213]
3,≥ 25 µM,CCC1Oc2cc(S(=O)(=O)NCc3ccc(C(F)(F)F)cc3)c(Br)cc2NC1=O (stereo not drawn) [BC19370]
4,≥ 25 µM,CCOc1ccc(NS(=O)(=O)c2cc(Br)cc3c2OCC(=O)N3)cc1 [BC19173]
5,1 to 25 µM,CC1Oc2c(cc(Cl)cc2S(=O)(=O)Nc2ccc(C#N)cc2)NC1=O (stereo not drawn) [BC19730]
6,< 1 µM,Cc1ccc(NS(=O)(=O)c2cc3c(cc2Br)NC(=O)CCO3)cc1 [BC19661]
7,< 1 µM,CC1Oc2cc(S(=O)(=O)Nc3ccc(C#N)cc3)c(Cl)cc2NC1=O (stereo not drawn) [BC19729]
8,1 to 25 µM,Cc1ccc(NS(=O)(=O)c2cc(Br)cc3c2OC(CC(C)C)C(=O)N3)cc1Cl (stereo not drawn) [BC19767]
9,< 1 µM,CCc1cccc(NS(=O)(=O)c2cc3c(cc2Br)NC(=O)CO3)c1 [BC19167]
10,1 to 25 µM,O=C(O)c1cc2c(c(NS(=O)(=O)c3ccc(F)c(F)c3)c1)N1CCCC1C(=O)N2 (stereo not drawn) [BC19917]
11,< 1 µM,Cc1cc2c(cc1S(=O)(=O)Nc1ccc(Cl)cc1)OCC(=O)N2 [BC19131]
12,1 to 25 µM,CCC1Oc2c(cc(Br)cc2S(=O)(=O)NC2CCC(O)CC2)NC1=O (stereo not drawn) [BC19378]
13,< 1 µM,O=C1COc2c(cc(Br)cc2S(=O)(=O)Nc2ccc(F)cc2F)N1 [BC19178]
14,1 to 25 µM,CCC1Oc2c(cc(Cl)cc2S(=O)(=O)Nc2ccc(C)c(Cl)c2)NC1=O (stereo not drawn) [BC19746]
15,1 to 25 µM,CC(C)CC1Oc2c(cc(Br)cc2S(=O)(=O)Nc2ccc(F)c(F)c2)NC1=O (stereo not drawn) [BC19759]
16,1 to 25 µM,CC(C)c1ccc(NS(=O)(=O)c2cc3c(cc2Br)NC(=O)CCO3)cc1 [BC19691]
17,1 to 25 µM,O=C1CCOc2cc(S(=O)(=O)Nc3ccc(F)cc3F)c(Br)cc2N1 [BC19693]
